Test results: patent US20240408169A1 (priority 2023, published 2024)
*1 amine or outer side, *2 acyl side, *3 side chain or, on linkers, in order; H or OH if unused. Where a SMILES comes first, the peptide text is derived from it. Bridges are numbered along the chain shown (N, C = ends). [ ]: non-standard residue; d: D form. The star is where a group is joined. X10 = CC(C)C(=O)N1[C@H]2COC[C@@H]1C=C(c1ccc(Cl)cc1C[C@@H](C(=O)[*:2])N(C)[*:1])C2; X110 = CC(C)C(=O)N1[C@H]2CC[C@@H]1C=C(c1ccc(Cl)cc1C[C@@H](C(=O)[*:2])N(C)[*:1])C2; X7 = CC(C)C(=O)N1[C@H]2CC[C@@H]1C=C(c1ccc(F)cc1C[C@@H](C(=O)[*:2])N(C)[*:1])C2; NMePhe(2-(4-MorPh),5-Cl) = CN[C@@H](Cc1cc(Cl)ccc1-c1ccc(N2CCOCC2)cc1)C(=O)O; X107 = CN([C@@H](Cc1cc(Cl)ccc1-c1ccc(-c2cnn(C)c2)cc1)C(=O)[*:2])[*:1]; X114 = CN([C@@H](Cc1cc(Cl)ccc1-c1ccc(OCCN2CCOCC2)cc1)C(=O)[*:2])[*:1]; X11 = CN1CCN(c2ccc(-c3ccc(Cl)cc3C[C@@H](C(=O)[*:2])N(C)[*:1])cc2)CC1; X115 = CN([C@@H](Cc1cc(Cl)ccc1-c1ccc(N2CCNCC2)cc1)C(=O)[*:2])[*:1]; X82 = CN([C@@H](Cc1cc(Cl)ccc1-c1cnn(S(C)(=O)=O)c1)C(=O)[*:2])[*:1]; X93 = CN([C@@H](Cc1cc(Cl)ccc1-c1ccc(OC2CCOCC2)cc1)C(=O)[*:2])[*:1]; X87 = CN([C@@H](Cc1cc(F)ccc1-c1ccc(N2CCOCC2)cc1)C(=O)[*:2])[*:1]; X60 = CN([C@@H](Cc1cc(Cl)ccc1-c1cnn2ccncc12)C(=O)[*:2])[*:1]; NMehhhLys(Me) = CN([C@@H](CCCCCCCN(C)[*:3])C(=O)[*:2])[*:1]; NMe(hhhLys) = CN([C@@H](CCCCCCCN[*:3])C(=O)[*:2])[*:1]; X17 = CN([C@@H](Cc1cc(Cl)cnc1N1CCOCC1)C(=O)[*:2])[*:1]; Oxane2carbonyl(2R-CF3) = O=C([C@@]1(C(F)(F)F)CCCCO1)*; X33 = CN([C@@H](Cc1cc(Cl)cc2c1OCCO2)C(=O)[*:2])[*:1]; cBuCO(3,3-F2-1-CF3) = O=C(C1(C(F)(F)F)CC(F)(F)C1)*; Pro(trans-4-F) = O=C(O)[C@@H]1C[C@@H](F)CN1; Pivaloyl(3,3,3-F3) = CC(C)(C(=O)*)C(F)(F)F; Gly(cPr) = N[C@H](C(=O)O)C1CC1

How the values were obtained:
OVCAR3 cells = assay: MTT proliferation assay, OVCAR3; assay type: cell-based; conditions: 5 days compound exposure, 1:3 serial dilution starting at 10 μM;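 note: compound given as an 8- or 10-point series, one day after plating, with exposure covering roughly 3-4 cell doublings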
CyclinA2/CDK2 = molecular target: T1, CyclinA2/CDK2 (Homo sapiens, UniProt P20248); assay: Fluorescence Polarization (FP) competitive binding assay, Cyclin A2/Cdk2; conditions: 8 nM Cyclin A2/Cdk2, 2 nM FAM probe; average of 2-3 independent experiments; read-out: Cyclin A FP IC50;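 note: plates equilibrated two hours at room temperature before polarization reading, IC50 fitted from eight-concentration compound titration curves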
T1 construct: purchased CRELUX Protein Services

CyclinB1/CDK1 = molecular target: T2, CyclinB1/CDK1 (Homo sapiens, UniProt P14635); assay: Fluorescence Polarization (FP) competitive binding assay, Cyclin B1/Cdk1; conditions: 10 nM Cyclin B1/Cdk1, 2 nM FAM probe; average of 2-3 independent experiments; read-out: Cyclin B FP IC50;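 note: fluorescence polarization read after equilibration at room temperature, with IC50 taken from serially diluted dose-response curves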
T2 construct: purchased Eurofins, discovery 14-450

WI-38 cells = assay: MTT proliferation assay, WI-38; assay type: cell-based; conditions: 3 days compound exposure, 1:3 serial dilution starting at 10 μM;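 note: Eight- or ten-point dilution series, with exposure length chosen to span about three to four cell doublings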
CyclinE1/CDK2 = molecular target: T3, CyclinE1/CDK2 (Homo sapiens, UniProt P24864); assay: Fluorescence Polarization (FP) competitive binding assay, Cyclin E1/Cdk2; conditions: 10 nM Cyclin E1/Cdk2, 2 nM FAM probe; average of 2-3 independent experiments; read-out: Cyclin E FP IC50;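 note: readings taken after two-hour equilibration at room temperature in HEPES buffer with NaCl, DTT, NP-40 and BSA, IC50 fitted from eight-concentration serial dilution series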
T3 construct: purchased Eurofins, discovery 14-475

NCI-H1048 cells = assay: MTT proliferation assay, NCI-H1048; assay type: cell-based; conditions: 5 days compound exposure, 1:3 serial dilution starting at 10 μM;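 note: Dose-response in 96-well plates over 8 or 10 concentration points, with exposure spanning 3-4 cell doublings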

Structure (SMILES)	GI50 (OVCAR3 cells) [nM]	IC50 (CyclinA2/CDK2) [nM]	IC50 (CyclinB1/CDK1) [nM]	GI50 (WI-38 cells) [nM]	IC50 (CyclinE1/CDK2) [nM]	GI50 (NCI-H1048 cells) [nM]
CC(C)C[C@@H]1NC(=O)[C@@H](N(C)C(=O)[C@@H](NC(=O)[C@@H]2C[C@@H](F)CN2C(=O)[C@@]2(C(F)(F)F)CCCCO2)C2CC2)CCCCCCCN(C)C(=O)[C@H](Cc2cc(Cl)ccc2-c2cnn(S(C)(=O)=O)c2)N(C)C1=O [Example 299] ({Oxane2carbonyl(2R-CF3)}-[Pro(trans-4-F)][Gly(cPr)][NMehhhLys(Me)]L[X82]; lactam 3-C)	10	20	20	14300	130	10
CC(C)C[C@@H]1NC(=O)[C@@H](N(C)C(=O)[C@@H](NC(=O)[C@@H]2C[C@@H](F)CN2C(=O)C2(C(F)(F)F)CC(F)(F)C2)C2CC2)CCCCCCCN(C)C(=O)[C@H](Cc2cc(Cl)ccc2-c2cnn3ccncc23)N(C)C1=O [Example 305] ({cBuCO(3,3-F2-1-CF3)}-[Pro(trans-4-F)][Gly(cPr)][NMehhhLys(Me)]L[X60]; lactam 3-C)	20	50	20	19200	1750	10
CC(C)C[C@@H]1NC(=O)[C@@H](N(C)C(=O)[C@@H](NC(=O)[C@@H]2C[C@@H](F)CN2C(=O)C2(C(F)(F)F)CC(F)(F)C2)C2CC2)CCCCCCCNC(=O)[C@H](Cc2cc(Cl)ccc2C2=C[C@H]3CC[C@@H](C2)N3C(=O)C(C)C)N(C)C1=O [Example 313] ({cBuCO(3,3-F2-1-CF3)}-[Pro(trans-4-F)][Gly(cPr)][NMe(hhhLys)]L[X110]; lactam 3-C)	10	20	20	36600	640	10
CC(C)C[C@@H]1NC(=O)[C@@H](N(C)C(=O)[C@@H](NC(=O)[C@@H]2C[C@@H](F)CN2C(=O)C2(C(F)(F)F)CC(F)(F)C2)C2CC2)CCCCCCCN(C)C(=O)[C@H](Cc2cc(F)ccc2C2=C[C@H]3CC[C@@H](C2)N3C(=O)C(C)C)N(C)C1=O [Example 318] ({cBuCO(3,3-F2-1-CF3)}-[Pro(trans-4-F)][Gly(cPr)][NMehhhLys(Me)]L[X7]; lactam 3-C)	10	20	20	9920	280	10
CC(C)C[C@@H]1NC(=O)[C@@H](N(C)C(=O)[C@@H](NC(=O)[C@@H]2C[C@@H](F)CN2C(=O)C2(C(F)(F)F)CC(F)(F)C2)C2CC2)CCCCCCCN(C)C(=O)[C@H](Cc2cc(Cl)cnc2N2CCOCC2)N(C)C1=O [Example 320] ({cBuCO(3,3-F2-1-CF3)}-[Pro(trans-4-F)][Gly(cPr)][NMehhhLys(Me)]L[X17]; lactam 3-C)	20	30	20	15500	1450	10
CC(C)C[C@@H]1NC(=O)[C@@H](N(C)C(=O)[C@@H](NC(=O)[C@@H]2C[C@@H](F)CN2C(=O)C2(C(F)(F)F)CC(F)(F)C2)C2CC2)CCCCCCCN(C)C(=O)[C@H](Cc2cc(Cl)cc3c2OCCO3)N(C)C1=O [Example 321] ({cBuCO(3,3-F2-1-CF3)}-[Pro(trans-4-F)][Gly(cPr)][NMehhhLys(Me)]L[X33]; lactam 3-C)	10	20	20	89800	100	10
CC(C)C[C@@H]1NC(=O)[C@@H](N(C)C(=O)[C@@H](NC(=O)[C@@H]2C[C@@H](F)CN2C(=O)C2(C(F)(F)F)CC(F)(F)C2)C2CC2)CCCCCCCNC(=O)[C@H](Cc2cc(Cl)ccc2C2=C[C@H]3COC[C@@H](C2)N3C(=O)C(C)C)N(C)C1=O [Example 327] ({cBuCO(3,3-F2-1-CF3)}-[Pro(trans-4-F)][Gly(cPr)][NMe(hhhLys)]L[X10]; lactam 3-C)	10	20	20	83900	400	10
CC(C)C[C@@H]1NC(=O)[C@@H](N(C)C(=O)[C@@H](NC(=O)[C@@H]2C[C@@H](F)CN2C(=O)C2(C(F)(F)F)CC(F)(F)C2)C2CC2)CCCCCCCNC(=O)[C@H](Cc2cc(Cl)cc3c2OCCO3)N(C)C1=O [Example 330] ({cBuCO(3,3-F2-1-CF3)}-[Pro(trans-4-F)][Gly(cPr)][NMe(hhhLys)]L[X33]; lactam 3-C)	10	30	20	18500	100	10
CC(C)C[C@@H]1NC(=O)[C@@H](N(C)C(=O)[C@@H](NC(=O)[C@@H]2C[C@@H](F)CN2C(=O)C(C)(C)C(F)(F)F)C2CC2)CCCCCCCN(C)C(=O)[C@H](Cc2cc(Cl)ccc2-c2ccc(N3CCOCC3)cc2)N(C)C1=O [Example 335] ({Pivaloyl(3,3,3-F3)}-[Pro(trans-4-F)][Gly(cPr)][NMehhhLys(Me)]L[NMePhe(2-(4-MorPh),5-Cl)]; lactam 3-C)	10	20	20	4750	160	10
CC(C)C[C@@H]1NC(=O)[C@@H](N(C)C(=O)[C@@H](NC(=O)[C@@H]2C[C@@H](F)CN2C(=O)C2(C(F)(F)F)CC(F)(F)C2)C2CC2)CCCCCCCN(C)C(=O)[C@H](Cc2cc(Cl)ccc2-c2ccc(N3CCN(C)CC3)cc2)N(C)C1=O [Example 336] ({cBuCO(3,3-F2-1-CF3)}-[Pro(trans-4-F)][Gly(cPr)][NMehhhLys(Me)]L[X11]; lactam 3-C)	10	20	20	2480	420	10
CC(C)C[C@@H]1NC(=O)[C@@H](N(C)C(=O)[C@@H](NC(=O)[C@@H]2C[C@@H](F)CN2C(=O)C2(C(F)(F)F)CC(F)(F)C2)C2CC2)CCCCCCCN(C)C(=O)[C@H](Cc2cc(F)ccc2-c2ccc(N3CCOCC3)cc2)N(C)C1=O [Example 337] ({cBuCO(3,3-F2-1-CF3)}-[Pro(trans-4-F)][Gly(cPr)][NMehhhLys(Me)]L[X87]; lactam 3-C)	10	20	20	18700	190	10
CC(C)C[C@@H]1NC(=O)[C@@H](N(C)C(=O)[C@@H](NC(=O)[C@@H]2C[C@@H](F)CN2C(=O)C2(C(F)(F)F)CC(F)(F)C2)C2CC2)CCCCCCCN(C)C(=O)[C@H](Cc2cc(Cl)ccc2-c2ccc(-c3cnn(C)c3)cc2)N(C)C1=O [Example 338] ({cBuCO(3,3-F2-1-CF3)}-[Pro(trans-4-F)][Gly(cPr)][NMehhhLys(Me)]L[X107]; lactam 3-C)	20	30	20	18900	1700	20
CC(C)C[C@@H]1NC(=O)[C@@H](N(C)C(=O)[C@@H](NC(=O)[C@@H]2C[C@@H](F)CN2C(=O)C2(C(F)(F)F)CC(F)(F)C2)C2CC2)CCCCCCCN(C)C(=O)[C@H](Cc2cc(Cl)ccc2-c2ccc(OCCN3CCOCC3)cc2)N(C)C1=O [Example 339] ({cBuCO(3,3-F2-1-CF3)}-[Pro(trans-4-F)][Gly(cPr)][NMehhhLys(Me)]L[X114]; lactam 3-C)	10	20	20	5620	400	10
CC(C)C[C@@H]1NC(=O)[C@@H](N(C)C(=O)[C@@H](NC(=O)[C@@H]2C[C@@H](F)CN2C(=O)C2(C(F)(F)F)CC(F)(F)C2)C2CC2)CCCCCCCN(C)C(=O)[C@H](Cc2cc(Cl)ccc2-c2ccc(OC3CCOCC3)cc2)N(C)C1=O [Example 340] ({cBuCO(3,3-F2-1-CF3)}-[Pro(trans-4-F)][Gly(cPr)][NMehhhLys(Me)]L[X93]; lactam 3-C)	20	20	20	17300	1650	20
CC(C)C[C@@H]1NC(=O)[C@@H](N(C)C(=O)[C@@H](NC(=O)[C@@H]2C[C@@H](F)CN2C(=O)C2(C(F)(F)F)CC(F)(F)C2)C2CC2)CCCCCCCN(C)C(=O)[C@H](Cc2cc(Cl)ccc2-c2ccc(N3CCNCC3)cc2)N(C)C1=O [Example 341] ({cBuCO(3,3-F2-1-CF3)}-[Pro(trans-4-F)][Gly(cPr)][NMehhhLys(Me)]L[X115]; lactam 3-C)	10	20	20	2440	510	10
